Data reported in paper PMC8924238, “Mapping the sequence specificity of heterotypic amyloid interactions enables the identification of aggregation modifiers” (Nature Communications, 2022).

Test system: HEK293 Tau^RD-P301S-CFP/YFP expressing biosensor cells
Assay: FRET cellular transfection assay with protein constructs and tau seeds
Type: cell-based
Settings: for rise of induced tau aggregation in transfection-positive cells: compared to non-expressing and non-transfected cells, high seeding concentrations; for susceptibility to tau seeding at low seed concentrations: concentration-dependent quantification; for number of inclusions formed per cell: higher concentrations of tau seeds, compared to the controls
Method: HEK293 Tau^RD-P301S-CFP/YFP expressing biosensor cells[109] were purchased from ATCC and cultured in DMEM medium, supplemented with 10% FBS at 37 °C, and a 5% CO2 atmosphere. Gene constructs (Supplementary Methods) were generated and onboarded to a pTwist CMV expression vector by coupling double-tagged (N-terminal HA and C-terminal FLAG recognition sites) genes of interest to an mKO2 fluorescence reporter, separated by an IRES site to enable independent co-expression (Twist Biosciences). Due to restrictions imposed by the construct synthesis, for proteins longer than 500 residues we designed shorter domain-constructs containing the homologous sequences (Supplementary Table 2). Biosensor cells were plated in poly-L-lysine coated 96-well plates (PerkinElmer) at a density of 20000 cells/well. DNA transfection (100 ng) and tau seeds transfection was performed 6 h and 48 h later, respectively, using Lipofectamine 3000 according to the manufacturer guidelines. For seed transfections specifically, a volume of 4.8 μL of the seed sample, mixed with 0.2 μL of Reagent 3000, was added to a mixture of 0.3 μL of Lipofectamine 3000 with 4.7 μL of Opti-MEM medium. Cells were fixed with 4% formaldehyde 24 h after seeding. Fixed cells were stained with DAPI (Thermofisher, D1306) following the manufacturer protocol. For immunofluorescence staining, primary antibody staining at 1:1000 dilution was performed in 1% BSA with an HA-tag (C29F4) Rabbit mAb (Cell Signalling, #3724), followed by secondary staining with an Alexa Fluor 647 goat anti-rabbit antibody (ThermoFisher, A-21245) at 1:1000 dilution in 1% BSA for 1 h. Three individual plate preparations were performed for each construct gradient as independent experiments (n = 3). High-content screening was performed at the VIB Screening Core/C-BIOS, using an Opera Phenix HCS (PerkinElmer) equipped with proper filter channels to track tau aggregation through FRET (Ex:405, Em:550), construct colocalization through HA staining (Ex:647, Em:667) and DAPI staining (Ex:405 Em:430). Image storage and segmentation analysis was performed using the Columbus Plus digital platform (PerkinElmer). Quantification of colocalization was performed using Coloc2 in ImageJ.

## DOCK3: dedicator of cytokinesis, transiently expressed construct
  rise of induced tau aggregation in transfection-positive cells: 30%

## IDE: insulin degrading enzyme, transiently expressed construct with homology to PHF6
  rise of induced tau aggregation in transfection-positive cells: 30%
  susceptibility to tau seeding at low seed concentrations: vulnerable to tau seeding even at picomolar concentrations
  number of inclusions formed per cell: doubling or higher effect

B1: SNTG1: Synaptotagmin-1 (SNTG1) as worded, transiently expressed construct (protein, UniProt Q9NSN8 1-517, looked up)
Gamma-1-syntrophin: MDFRTACEETKTGICLLQDGNQEPFKVRLHLAKDILMIQEQDVICVSGEPFYSGERTVTIRRQTVGGFGLSIKGGAEHNIPVVVSKISKEQRAELSGLLFIGDAILQINGINVRKCRHEEVVQVLRNAGEEVTLTVSFLKRAPAFLKLPLNEDCACAPSDQSSGTSSPLCDSGLHLNYHPNNTDTLSCSSWPTSPGLRWEKRWCDLRLIPLLHSRFSQYVPGTDLSRQNAFQVIAVDGVCTGIIQCLSAEDCVDWLQAIATNISNLTKHNIKKINRNFPVNQQIVYMGWCEAREQDPLQDRVYSPTFLALRGSCLYKFLAPPVTTWDWTRAEKTFSVYEIMCKILKDSDLLDRRKQCFTVQSESGEDLYFSVELESDLAQWERAFQTATFLEVERIQCKTYACVLESHLMGLTIDFSTGFICFDAATKAVLWRYKFSQLKGSSDDGKSKIKFLFQNPDTKQIEAKELEFSNLFAVLHCIHSFFAAKVACLDPLFLGNQATASTAASSATTSKAKYTT
  number of inclusions formed per cell: doubling or higher effect

B2: TRA2B: Transformer-2 homolog beta, transiently expressed construct (protein, UniProt P62995 2-288, looked up)
Transformer-2 protein homolog …: SDSGEQNYGERESRSASRSGSAHGSGKSARHTPARSRSKEDSRRSRSKSRSRSESRSRSRRSSRRHYTRSRSRSRSHRRSRSRSYSRDYRRRHSHSHSPMSTRRRHVGNRANPDPNCCLGVFGLSLYTTERDLREVFSKYGPIADVSIVYDQQSRRSRGFAFVYFENVDDAKEAKERANGMELDGRRIRVDFSITKRPHTPTPGIYMGRPTYGSSRRRDYYDRGYDRGYDDRDYYSRSYRGGGGGGGGWRAAQDRDQIYRRRSPSPYYSRGGYRSRSRSRSYSPRRY
  rise of induced tau aggregation in transfection-positive cells: 30%
  susceptibility to tau seeding at low seed concentrations: vulnerable to tau seeding even at picomolar concentrations
  number of inclusions formed per cell: doubling or higher effect
